In ChEMBL document CHEMBL1201862, “PubChem BioAssay data set” (2004):
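These data come from cells grown in 96-well plates and exposed to compound for 48 hours at five concentrations. GI50 = concentration required for 50% inhibition of growth.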 Activity calls are given as the source filed them. Cut-off read from the data, not from the text of the source: active = GI50 up to about 1.1 µM and inactive = higher.

Assays:
Assay in all cases: DTP human tumour cell line panel, 48 h
[1] = tested on: 786-0
[2] = tested on: A498
[3] = tested on: A549
[4] = tested on: ACHN
[5] = tested on: BT-549
[6] = tested on: CAKI-1
[7] = tested on: CCRF-CEM
[8] = tested on: COLO 205
[9] = tested on: DLD-1
[10] = tested on: DMS-114
[11] = tested on: DMS-273
[12] = tested on: DU-145
[13] = tested on: EKVX
[14] = tested on: HCC 2998
[15] = tested on: HCT-116
[16] = tested on: HCT-15
[17] = tested on: HL-60
[18] = tested on: HOP-62
[19] = tested on: HOP-92
[20] = tested on: HT-29
[21] = tested on: Hs-578T
[22] = tested on: IGROV-1
[23] = tested on: K562
[24] = tested on: KM-20L2
[25] = tested on: KM12
[26] = tested on: LOX IMVI
[27] = tested on: LXFL 529
[28] = tested on: M14
[29] = tested on: M19-MEL
[30] = tested on: MCF7
[31] = tested on: MDA-MB-231
[32] = tested on: MDA-MB-435
[33] = tested on: MDA-N
[34] = tested on: MOLT-4
[35] = tested on: Malme-3M
[36] = tested on: NCI-H226
[37] = tested on: NCI-H23
[38] = tested on: NCI-H460
[39] = tested on: NCI-H522
[40] = tested on: NCI/ADR-RES
[41] = tested on: OVCAR-3
[42] = tested on: OVCAR-4
[43] = tested on: OVCAR-5
[44] = tested on: OVCAR-8
[45] = tested on: PC-3
[46] = tested on: RPMI-8226
[47] = tested on: RXF 393
[48] = tested on: SF-268
[49] = tested on: SF-295
[50] = tested on: SF-539
[51] = tested on: SK-MEL-28
[52] = tested on: SK-MEL-2
[53] = tested on: SK-MEL-5
[54] = tested on: SK-OV-3
[55] = tested on: SN12C
[56] = tested on: SNB-19
[57] = tested on: SNB-75
[58] = tested on: SNB-78
[59] = tested on: SR
[60] = tested on: SW-620
[61] = tested on: T47D
[62] = tested on: TK-10
[63] = tested on: U-251
[64] = tested on: UACC-257
[65] = tested on: UACC-62
[66] = tested on: UO-31
[67] = tested on: XF498

## COc1cc(/C=C(\C#N)C(N)=C(C#N)C#N)cc(O)c1O
[1]
  GI50: > 100 µM (inactive)
[2]
  GI50: > 100 µM (inactive)
[3]
  GI50: > 100 µM (inactive)
[4]
  GI50: > 100 µM (inactive)
[5]
  GI50: > 100 µM (inactive)
[6]
  GI50: > 100 µM (inactive)
[7]
  GI50: 22.7 µM (inactive)
[8]
  GI50: > 100 µM (inactive)
[9]
  GI50: > 100 µM (inactive)
[10]
  GI50: 47 µM (inactive)
[11]
  GI50: > 100 µM (inactive)
[12]
  GI50: > 100 µM (inactive)
[13]
  GI50: > 89.7 µM (inactive)
[14]
  GI50: > 100 µM (inactive)
[15]
  GI50: > 70.5 µM (inactive)
[16]
  GI50: > 68.5 µM
[17]
  GI50: 26.9 µM (inactive)
[18]
  GI50: > 71.6 µM (inactive)
[19]
  GI50: > 68.4 µM (inactive)
[20]
  GI50: > 83.9 µM (inactive)
[21]
  GI50: 42.9 µM (inactive)
[22]
  GI50: > 66.8 µM (inactive)
[23]
  GI50: > 79.6 µM (inactive)
[24]
  GI50: > 100 µM (inactive)
[25]
  GI50: > 84.3 µM (inactive)
[26]
  GI50: > 61.4 µM (inactive)
[27]
  GI50: > 100 µM (inactive)
[28]
  GI50: > 100 µM (inactive)
[29]
  GI50: > 100 µM (inactive)
[30]
  GI50: 95.3 µM (inactive)
[31]
  GI50: > 100 µM (inactive)
[32]
  GI50: 59.3 µM (inactive)
[33]
  GI50: 68.2 µM (inactive)
[34]
  GI50: 55.2 µM (inactive)
[35]
  GI50: > 100 µM (inactive)
[36]
  GI50: > 63.5 µM (inactive)
[37]
  GI50: > 100 µM (inactive)
[38]
  GI50: > 89.1 µM (inactive)
[39]
  GI50: 36 µM (inactive)
[40]
  GI50: > 100 µM (inactive)
[41]
  GI50: > 56.4 µM (inactive)
[42]
  GI50: > 100 µM (inactive)
[43]
  GI50: > 100 µM (inactive)
[44]
  GI50: 91.2 µM (inactive)
[45]
  GI50: > 100 µM (inactive)
[46]
  GI50: > 100 µM (inactive)
[47]
  GI50: > 100 µM (inactive)
[48]
  GI50: > 87.9 µM (inactive)
[49]
  GI50: > 77.1 µM (inactive)
[50]
  GI50: > 100 µM (inactive)
[51]
  GI50: > 100 µM (inactive)
[52]
  GI50: > 100 µM (inactive)
[53]
  GI50: > 100 µM (inactive)
[54]
  GI50: > 100 µM (inactive)
[55]
  GI50: > 36 µM (inactive)
[56]
  GI50: > 87.5 µM (inactive)
[57]
  GI50: > 88.5 µM (inactive)
[58]
  GI50: > 100 µM (inactive)
[59]
  GI50: 35.1 µM (inactive)
[60]
  GI50: > 76.4 µM (inactive)
[61]
  GI50: 91.8 µM (inactive)
[62]
  GI50: > 100 µM (inactive)
[63]
  GI50: > 88.7 µM (inactive)
[64]
  GI50: > 100 µM (inactive)
[65]
  GI50: > 93.5 µM (inactive)
[66]
  GI50: > 77.8 µM (inactive)
[67]
  GI50: > 100 µM (inactive)
